Measured values taken from patent publication US20060058286A1, “Methods of treating HIV infection” (priority 2004, published 2006).

Experiments:
[1] = test system: HIV-1 NL4-3; test: Two-drug combination study with Compound 1 (combination indices); type: cell-based; conditions: for Combination Indices at 50% HIV Inhibition (Confidence Interval) / Combination Indices at 75% HIV Inhibition (Confidence Interval) / Combination Indices at 90% HIV Inhibition (Confidence Interval): 95% CI in parentheses; for Overall Result: overall antiviral effect of the two-drug combination with Compound 1, all ratios and effective levels
Method: (§1) Virus and cell lines. The T-cell line, MT-2 was obtained through the AIDS Research and Reference Reagent Program, NIAID and was contributed by Dr. D. Richman. The cell line was cultured in RPMI 1640 medium supplemented with 10% fetal bovine serum, 2 mM L-glutamine and sub-cultured twice a week. The NL4-3 strain of HIV-1 was obtained from the AIDS Research and Reference Reagent Program. Both virus stocks were amplified and titered in MT-2 cells using a virus infectivity assay.
(§2) Drug Susceptibility and Cytotoxicity Assays. For drug susceptibility assays, MT-2 cells were infected with HIV-1 NL4-3 at an MOI of 0.001, and seeded into 96-well microtiter plates (2.5×10^5 cells/ml) containing serial dilutions of test compounds. […] Each drug ratio consisted of an array of 3-fold serial dilutions, and was performed in quadruplicate. The plates were incubated at 37° C./5% CO2. The MT-2 cells infected with HIV-1 NL4-3 were incubated for 5 days. On day-five post-infection, 20 μl from each well was harvested and quantitated by a reverse transcriptase (RT) assay or an MTS assay. Cytotoxicity assays were performed using uninfected cells, exposed to the same drug combinations, and incubated for five days. Cell viability was determined by an XTT assay. The CC50 values were calculated by using the exponential form of the median effect equation as mentioned below for calculation of EC50.
Analysis of Drug Combination Effects. For determination of CI values, drugs were diluted in a fixed ratio and multiple ratios were analyzed. The drug serial dilutions spanned a range of concentrations near the EC50 value of each compound, so that equivalent antiviral activities could be compared. Concentration-response curves were estimated for each individual drug and every combination using the median-effect equation. The equation was fit using a nonlinear regression routine (Proc Nlin) in PC SAS version 8.01 (SAS Institute Inc., SAS Version 8.01, Cary, N.C.: SAS Institute Inc., 1990).
(§3) In this equation, Fa stands for “fraction affected,” and represents the fraction of the viral load that has been inactivated.
To assess antiviral effects of different drug combination treatments, combination indices (CIs) were calculated according to Chou and Rideout. The combination index was computed as CI=[D]1/[Dm]1+[D]2/[Dm]2
In this equation [Dm]1 and [Dm]2 are the concentrations of drugs that would individually produce a specific level of effect, while [D]1 and [D]2 are the concentrations of drugs in combination that would produce the same level of effect.
Theoretically, additivity is implied if the CI is equal to one, synergy if the CI is less than one, and antagonism if the CI is greater than one. […] At best, we can construct a range that contains the likely values for the CI, given the noise in the data. In this report, these ranges are reported in parentheses next to each point estimate of the CI. […] If the range fell entirely above 1.0, we would infer antagonistic behavior. If the range were to include 1.0, we would infer additivity.

[2] = test system: HIV-1 NL4-3; test: microbe, parasite or virus in culture; conditions: Human immunodeficiency virus 1, NL43, MT2, 120 h
Method: as §1, §2, §3
In carrying out the combination experiments below, the EC50 for Compound 1 and each comparator compound was determined during the course of each study, and used in the subsequent data analysis.

[3] = combination with Compound 1, EC50 ratio 1:1 (Compound 1:comparator)
[4] = combination with Compound 1, EC50 ratio 1:2.5 (Compound 1:comparator)
[5] = combination with Compound 1, EC50 ratio 2.5:1 (Compound 1:comparator)

SMILES: Nc1nc(NC2CC2)c2ncn([C@H]3C=C[C@@H](CO)C3)c2n1 [Abacavir, abacavir]
- combination effect at the 50% effective level ([1]; combination with Compound 1): synergy
- combination effect at the 75% and 90% effective levels ([1]; combination with Compound 1): additivity
- Combination Indices at 50% HIV Inhibition (Confidence Interval) [1, 3]: 0.66 (0.48, 0.84)
- Combination Indices at 75% HIV Inhibition (Confidence Interval) [1, 3]: 0.89 (0.55, 1.91)
- Combination Indices at 90% HIV Inhibition (Confidence Interval) [1, 3]: 1.20 (0.48, 1.91)
- Combination Indices at 50% HIV Inhibition (Confidence Interval) [1, 4]: 0.58 (0.45, 0.71)
- Combination Indices at 75% HIV Inhibition (Confidence Interval) [1, 4]: 0.92 (0.62, 1.21)
- Combination Indices at 90% HIV Inhibition (Confidence Interval) [1, 4]: 1.46 (0.72, 2.20)
- Combination Indices at 50% HIV Inhibition (Confidence Interval) [1, 5]: 0.65 (0.44, 0.86)
- Combination Indices at 75% HIV Inhibition (Confidence Interval) [1, 5]: 0.88 (0.49, 1.28)
- Combination Indices at 90% HIV Inhibition (Confidence Interval) [1, 5]: 1.20 (0.36, 2.05)
- Overall Result [1]: Additive
- EC50 [2]: 740 nM

SMILES: CC(C)CN(C[C@@H](O)[C@H](Cc1ccccc1)NC(=O)O[C@H]1CCOC1)S(=O)(=O)c1ccc(N)cc1 [Amprenavir, amprenavir]
- Combination Indices at 50% HIV Inhibition (Confidence Interval) [1, 3]: 0.37 (0.24, 0.49)
- Combination Indices at 75% HIV Inhibition (Confidence Interval) [1, 3]: 0.53 (0.28, 0.78)
- Combination Indices at 90% HIV Inhibition (Confidence Interval) [1, 3]: 0.95 (0.24, 1.67)
- Combination Indices at 50% HIV Inhibition (Confidence Interval) [1, 4]: 0.37 (0.27, 0.48)
- Combination Indices at 75% HIV Inhibition (Confidence Interval) [1, 4]: 0.56 (0.33, 0.78)
- Combination Indices at 90% HIV Inhibition (Confidence Interval) [1, 4]: 1.05 (0.38, 1.71)
- Combination Indices at 50% HIV Inhibition (Confidence Interval) [1, 5]: 1.17 (0.91, 1.43)
- Combination Indices at 75% HIV Inhibition (Confidence Interval) [1, 5]: 0.87 (0.60, 1.13)
- Combination Indices at 90% HIV Inhibition (Confidence Interval) [1, 5]: 0.74 (0.38, 1.10)
- Overall Result [1]: Additive-
- Overall Result ([1]; listed as amprenavir): additive to synergistic
- EC50 [2]: 42 nM

SMILES: COC(=O)N[C@H](C(=O)N[C@@H](Cc1ccccc1)[C@@H](O)CN(Cc1ccc(-c2ccccn2)cc1)NC(=O)[C@@H](NC(=O)OC)C(C)(C)C)C(C)(C)C [Atazanavir, atazanavir]
- Combination Indices at 50% HIV Inhibition (Confidence Interval) [1, 3]: 0.64 (0.54, 0.73)
- Combination Indices at 75% HIV Inhibition (Confidence Interval) [1, 3]: 0.60 (0.49, 0.72)
- Combination Indices at 90% HIV Inhibition (Confidence Interval) [1, 3]: 0.59 (0.43, 0.75)
- Combination Indices at 50% HIV Inhibition (Confidence Interval) [1, 4]: 0.91 (0.81, 1.20)
- Combination Indices at 75% HIV Inhibition (Confidence Interval) [1, 4]: 0.90 (0.70 1.10)
- Combination Indices at 90% HIV Inhibition (Confidence Interval) [1, 4]: 0.90 (0.57, 1.23)
- Combination Indices at 50% HIV Inhibition (Confidence Interval) [1, 5]: 1.01 (0.80, 1.19)
- Combination Indices at 75% HIV Inhibition (Confidence Interval) [1, 5]: 1.02 (0.77, 1.28)
- Combination Indices at 90% HIV Inhibition (Confidence Interval) [1, 5]: 1.09 (0.67, 1.50)
- Overall Result [1]: Additive-
- Overall Result ([1]; listed as atazanavir): additive to synergistic
- EC50 [2]: 9 nM

SMILES: CON(Cc1ccc(F)cc1)C(=O)/C=C(\O)C(=O)O [Compound 1, (Z)-3-[(4-Fluoro-benzyl)-methoxy-carbamoyl]-2-hydroxy-acrylic acid]
- Overall Result [1]: synergistic or additive-synergistic
- EC50 [2]: 155 nM

SMILES: COc1ncc(OC)c2c(C(=O)C(=O)N3CCN(C(=O)c4ccccc4)CC3)c[nH]c12 [Compound 3]
- combination effect at the 13:1 and 82.5:1 molar ratios ([1]; combination with Compound 1): moderate synergy
- combination effect at the 33:1 molar ratio ([1]; combination with Compound 1): additivity
- Combination Indices at 50% HIV Inhibition (Confidence Interval) [1, 3]: 0.92 (0.77, 1.06)
- Combination Indices at 75% HIV Inhibition (Confidence Interval) [1, 3]: 0.90 (0.70, 1.10)
- Combination Indices at 90% HIV Inhibition (Confidence Interval) [1, 3]: 0.89 (0.58, 1.21)
- Combination Indices at 50% HIV Inhibition (Confidence Interval) [1, 4]: 0.71 (0.60, 0.82)
- Combination Indices at 75% HIV Inhibition (Confidence Interval) [1, 4]: 0.66 (0.51, 0.80)
- Combination Indices at 90% HIV Inhibition (Confidence Interval) [1, 4]: 0.61 (0.40, 0.82)
- Combination Indices at 50% HIV Inhibition (Confidence Interval) [1, 5]: 0.41 (0.36, 0.47)
- Combination Indices at 75% HIV Inhibition (Confidence Interval) [1, 5]: 0.41 (0.33, 0.48)
- Combination Indices at 90% HIV Inhibition (Confidence Interval) [1, 5]: 0.40 (0.28, 0.52)
- Overall Result [1]: synergistic to additive
- EC50 [2]: 1 nM

SMILES: CC(C)Nc1cccnc1N1CCN(C(=O)c2cc3cc(NS(C)(=O)=O)ccc3[nH]2)CC1 [Delavirdine, delavirdine]
- Combination Indices at 50% HIV Inhibition (Confidence Interval) [1, 3]: 0.64 (0.50, 0.78)
- Combination Indices at 75% HIV Inhibition (Confidence Interval) [1, 3]: 0.59 (0.41, 0.78)
- Combination Indices at 90% HIV Inhibition (Confidence Interval) [1, 3]: 0.58 (0.30, 0.85)
- Combination Indices at 50% HIV Inhibition (Confidence Interval) [1, 4]: 0.56 (0.47, 0.64)
- Combination Indices at 75% HIV Inhibition (Confidence Interval) [1, 4]: 0.41 (0.32, 0.50)
- Combination Indices at 90% HIV Inhibition (Confidence Interval) [1, 4]: 0.31 (0.20, 0.41)
- Combination Indices at 50% HIV Inhibition (Confidence Interval) [1, 5]: 0.52 (0.44, 0.60)
- Combination Indices at 75% HIV Inhibition (Confidence Interval) [1, 5]: 0.44 (0.34, 0.54)
- Combination Indices at 90% HIV Inhibition (Confidence Interval) [1, 5]: 0.39 (0.26, 0.53)
- Overall Result [1]: Synergistic
- Overall Result ([1]; listed as delavirdine): strong synergistic effects
- EC50 [2]: 50 nM

SMILES: O=c1[nH]cnc2c1ncn2[C@H]1CC[C@@H](CO)O1 [Didanosine, didanosine]
- Combination Indices at 50% HIV Inhibition (Confidence Interval) [1, 3]: 0.20 (0.14, 0.25)
- Combination Indices at 75% HIV Inhibition (Confidence Interval) [1, 3]: 0.27 (0.17, 0.37)
- Combination Indices at 90% HIV Inhibition (Confidence Interval) [1, 3]: 0.40 (0.16, 0.64)
- Combination Indices at 50% HIV Inhibition (Confidence Interval) [1, 4]: 0.16 (0.12, 0.20)
- Combination Indices at 75% HIV Inhibition (Confidence Interval) [1, 4]: 0.21 (0.14, 0.28)
- Combination Indices at 90% HIV Inhibition (Confidence Interval) [1, 4]: 0.31 (0.13, 0.49)
- Combination Indices at 50% HIV Inhibition (Confidence Interval) [1, 5]: 0.31 (0.27, 0.36)
- Combination Indices at 75% HIV Inhibition (Confidence Interval) [1, 5]: 0.32 (0.26, 0.39)
- Combination Indices at 90% HIV Inhibition (Confidence Interval) [1, 5]: 0.35 (0.23, 0.47)
- Overall Result [1]: Synergistic
- Overall Result ([1]; listed as didanosine): synergistic
- EC50 [2]: 270 nM

SMILES: O=C1Nc2ccc(Cl)cc2[C@@](C#CC2CC2)(C(F)(F)F)O1 [Efavirenz, efavirenz]
- Combination Indices at 50% HIV Inhibition (Confidence Interval) [1, 3]: 0.57 (0.44, 0.70)
- Combination Indices at 75% HIV Inhibition (Confidence Interval) [1, 3]: 0.56 (0.38, 0.74)
- Combination Indices at 90% HIV Inhibition (Confidence Interval) [1, 3]: 0.56 (0.28, 0.84)
- Combination Indices at 50% HIV Inhibition (Confidence Interval) [1, 4]: 0.49 (0.36, 0.62)
- Combination Indices at 75% HIV Inhibition (Confidence Interval) [1, 4]: 0.54 (0.34, 0.75)
- Combination Indices at 90% HIV Inhibition (Confidence Interval) [1, 4]: 0.61 (0.26, 0.97)
- Combination Indices at 50% HIV Inhibition (Confidence Interval) [1, 5]: 0.60 (0.45, 0.74)
- Combination Indices at 75% HIV Inhibition (Confidence Interval) [1, 5]: 0.51 (0.33, 0.68)
- Combination Indices at 90% HIV Inhibition (Confidence Interval) [1, 5]: 0.43 (0.20, 0.67)
- Overall Result [1]: Synergistic
- Overall Result ([1]; listed as efavirenz): strong synergistic effects
- EC50 [2]: 1.5 nM

SMILES: Nc1nc(=O)n([C@@H]2CS[C@H](CO)O2)cc1F [Emtricitabine, emtricitabine]
- Combination Indices at 50% HIV Inhibition (Confidence Interval) [1, 3]: 0.52 (0.44, 0.59)
- Combination Indices at 75% HIV Inhibition (Confidence Interval) [1, 3]: 0.40 (0.32, 0.48)
- Combination Indices at 90% HIV Inhibition (Confidence Interval) [1, 3]: 0.32 (0.22, 0.41)
- Combination Indices at 50% HIV Inhibition (Confidence Interval) [1, 4]: 0.74 (0.63, 0.84)
- Combination Indices at 75% HIV Inhibition (Confidence Interval) [1, 4]: 0.64 (0.52, 0.77)
- Combination Indices at 90% HIV Inhibition (Confidence Interval) [1, 4]: 0.57 (0.39, 0.75)
- Combination Indices at 50% HIV Inhibition (Confidence Interval) [1, 5]: 0.49 (0.42, 0.56)
- Combination Indices at 75% HIV Inhibition (Confidence Interval) [1, 5]: 0.34 (0.28, 0.41)
- Combination Indices at 90% HIV Inhibition (Confidence Interval) [1, 5]: 0.25 (0.17, 0.33)
- Overall Result [1]: Synergistic
- Overall Result ([1]; listed as emtricitibine): synergistic
- EC50 [2]: 110 nM
